Tests used:
[1] = Inhibition of Tel-fused LCK expressed in mouse BAF3 cells
[2] = Inhibition of Tel-fused SRC expressed in mouse BAF3 cells
[3] = Inhibition of Tel-fused KDR expressed in mouse BAF3 cells
[4] = Inhibition of Tel-fused LYN expressed in mouse BAF3 cells

IC50 [1] | IC50 [2] | IC50 [3] | IC50 [4] | SMILES
275 nM | 1220 nM | 245 nM | 468 nM | Cc1ccc(C(=O)Nc2cccc(C(F)(F)F)c2)cc1Nc1nc2ccccc2n1-c1cc(NCCC#N)ncn1 [3-(1-(6-(2-cyanoethylamino)pyrimidin-4-yl)-1H-benzo[d]imidazol-2-ylamino)-4-methyl-N-(3-(trifluoromethyl)phenyl)benzamide]
38 nM | 556 nM | 249 nM | 134 nM | Cc1ccc(C(=O)Nc2cccc(C(F)(F)F)c2)cc1Nc1nc2ccccc2n1-c1cc(NCCCCN(C)C)ncn1 [3-(1-(6-(4-(dimethylamino)butylamino)pyrimidin-4-yl)-1H-benzo[d]imidazol-2-ylamino)-4-methyl-N-(3-(trifluoromethyl)phenyl)benzamide]
4460 nM | > 10000 nM | 8180 nM | 8010 nM | Cc1ccc(C(=O)Nc2cccc(C(F)(F)F)c2)cc1Nc1nc2ccccc2n1-c1ncnc(N)c1C [3-(1-(6-amino-5-methylpyrimidin-4-yl)-1H-benzo[d]imidazol-2-ylamino)-4-methyl-N-(3-(trifluoromethyl)phenyl)benzamide]
20 nM | > 10000 nM | 55 nM | 15 nM | Cc1ccc(C(=O)Nc2cccc(C(F)(F)F)c2)cc1Nc1nc2ccccc2n1-c1cc(N)ncn1 [3-(1-(6-aminopyrimidin-4-yl)-1H-benzo[d]imidazol-2-ylamino)-4-methyl-N-(3-(trifluoromethyl)phenyl)benzamide]
83 nM | 7170 nM | 1020 nM | 1080 nM | Cc1cccc(NC(=O)c2ccc(C)c(Nc3nc4ccccc4n3-c3cc(N)ncn3)c2)c1 [3-(1-(6-aminopyrimidin-4-yl)-1H-benzo[d]imidazol-2-ylamino)-4-methyl-N-m-tolylbenzamide]
52 nM | 5380 nM | 464 nM | 272 nM | Cc1ccc(C(=O)Nc2cccc(Br)c2)cc1Nc1nc2ccccc2n1-c1cc(N)ncn1 [3-(1-(6-aminopyrimidin-4-yl)-1H-benzo[d]imidazol-2-ylamino)-N-(3-bromophenyl)-4-methylbenzamide]
> 10000 nM | > 10000 nM | > 10000 nM | > 10000 nM | Cc1ccc(C(=O)Nc2cccc(C(N)=O)c2)cc1Nc1nc2ccccc2n1-c1cc(N)ncn1 [3-(1-(6-aminopyrimidin-4-yl)-1H-benzo[d]imidazol-2-ylamino)-N-(3-carbamoylphenyl)-4-methylbenzamide]
76 nM | > 10000 nM | 260 nM | > 10000 nM | Cc1ccc(C(=O)Nc2cccc(Cl)c2)cc1Nc1nc2ccccc2n1-c1cc(N)ncn1 [3-(1-(6-aminopyrimidin-4-yl)-1H-benzo[d]imidazol-2-ylamino)-N-(3-chlorophenyl)-4-methylbenzamide]
157 nM | 4390 nM | 516 nM | 437 nM | COc1cccc(NC(=O)c2ccc(C)c(Nc3nc4ccccc4n3-c3cc(N)ncn3)c2)c1 [3-(1-(6-aminopyrimidin-4-yl)-1H-benzo[d]imidazol-2-ylamino)-N-(3-methoxyphenyl)-4-methylbenzamide]
16 nM | 202 nM | 52 nM | 16 nM | Cc1ccc(C(=O)Nc2cccc(C(C)(C)C)c2)cc1Nc1nc2ccccc2n1-c1cc(N)ncn1 [3-(1-(6-aminopyrimidin-4-yl)-1H-benzo[d]imidazol-2-ylamino)-N-(3-tert-butylphenyl)-4-methylbenzamide]
– | 606 nM | 296 nM | 126 nM | COCCNc1cc(-n2c(Nc3cc(NC(=O)c4cccc(C(F)(F)F)c4)ccc3C)nc3ccccc32)ncn1 [N-(3-(1-(6-(2-methoxyethylamino)pyrimidin-4-yl)-1H-benzo[d]imidazol-2-ylamino)-4-methylphenyl)-3-(trifluoromethyl)benzamide]
2700 nM | – | 9070 nM | 3300 nM | Cc1ccc(NC(=O)c2cccc(C(F)(F)F)c2)cc1Nc1nc2ccccc2n1-c1cc(Cl)ncn1 [N-(3-(1-(6-chloropyrimidin-4-yl)-1H-benzo[d]imidazol-2-ylamino)-4-methylphenyl)-3-(trifluoromethyl)benzamide]

Second part, the molecule before the results:

SMILES | IC50 [1] | IC50 [2] | IC50 [3] | IC50 [4]
CCN(CC)CCCCNc1cc(-n2c(Nc3cc(C(=O)Nc4cccc(C(F)(F)F)c4)ccc3C)nc3ccccc32)ncn1 [3-(1-(6-(4-(diethylamino)butylamino)pyrimidin-4-yl)-1H-benzo[d]imidazol-2-ylamino)-4-methyl-N-(3-(trifluoromethyl)phenyl)benzamide] | 52 nM | – | 243 nM | 140 nM
CCN(CC)CCCCNc1cc(-n2c(Nc3cc(C(=O)Nc4cccc(C)c4)ccc3C)nc3ccccc32)ncn1 [3-(1-(6-(4-(diethylamino)butylamino)pyrimidin-4-yl)-1H-benzo[d]imidazol-2-ylamino)-4-methyl-N-m-tolylbenzamide] | 406 nM | 1060 nM | 1360 nM | 1320 nM
Cc1cccc(NC(=O)c2ccc(C)c(Nc3nc4ccccc4n3-c3cc(NCCCCN(C)C)ncn3)c2)c1 [3-(1-(6-(4-(dimethylamino)butylamino)pyrimidin-4-yl)-1H-benzo[d]imidazol-2-ylamino)-4-methyl-N-m-tolylbenzamide] | 531 nM | 1270 nM | 1500 nM | 1380 nM
Cc1cc(NC(=O)c2ccc(C)c(Nc3nc4ccccc4n3-c3cc(N)ncn3)c2)ccn1 [3-(1-(6-aminopyrimidin-4-yl)-1H-benzo[d]imidazol-2-ylamino)-4-methyl-N-(2-methylpyridin-4-yl)benzamide] | 702 nM | > 10000 nM | 135 nM | > 10000 nM
Cc1cn(-c2cc(NC(=O)c3ccc(C)c(Nc4nc5ccccc5n4-c4cc(N)ncn4)c3)cc(C(F)(F)F)c2)cn1 [3-(1-(6-aminopyrimidin-4-yl)-1H-benzo[d]imidazol-2-ylamino)-4-methyl-N-(3-(4-methyl-1H-imidazol-1-yl)-5-(trifluoromethyl)phenyl)benzamide] | 14 nM | 107 nM | 20 nM | 28 nM
Cc1ccc(C(=O)Nc2ccccc2)cc1Nc1nc2ccccc2n1-c1cc(N)ncn1 [3-(1-(6-aminopyrimidin-4-yl)-1H-benzo[d]imidazol-2-ylamino)-4-methyl-N-phenylbenzamide] | 2280 nM | 6170 nM | 8820 nM | 5510 nM
Cc1ccc(C(=O)Nc2cccc(OC(F)F)c2)cc1Nc1nc2ccccc2n1-c1cc(N)ncn1 [3-(1-(6-aminopyrimidin-4-yl)-1H-benzo[d]imidazol-2-ylamino)-N-(3-(difluoromethoxy)phenyl)-4-methylbenzamide] | 47 nM | > 10000 nM | 92 nM | 100 nM
Cc1ccc(C(=O)Nc2cccc(C(C)C)c2)cc1Nc1nc2ccccc2n1-c1cc(N)ncn1 [3-(1-(6-aminopyrimidin-4-yl)-1H-benzo[d]imidazol-2-ylamino)-N-(3-isopropylphenyl)-4-methylbenzamide] | 7 nM | 21 nM | 17 nM | 15 nM
Cc1ccc(C(=O)Nc2cccc3cnccc23)cc1Nc1nc2ccccc2n1-c1cc(N)ncn1 [3-(1-(6-aminopyrimidin-4-yl)-1H-benzo[d]imidazol-2-ylamino)-N-(isoquinolin-5-yl)-4-methylbenzamide] | 3240 nM | 7610 nM | 10600 nM | 7840 nM
Cc1ccc(C(=O)Nc2cccc(C(F)(F)F)c2)cc1Nc1nc2ccccc2n1-c1ncnc(NCCCN2CCN(C)CC2)n1 [4-methyl-3-(1-(4-(3-(4-methylpiperazin-1-yl)propylamino)-1,3,5-triazin-2-yl)-1H-benzo[d]imidazol-2-ylamino)-N-(3-(trifluoromethyl)phenyl)benzamide] | 20 nM | 117 nM | 133 nM | 43 nM
CCN(CC)CCCCNc1cc(-n2c(Nc3cc(NC(=O)c4cccc(C(F)(F)F)c4)ccc3C)nc3ccccc32)ncn1 [N-(3-(1-(6-(4-(diethylamino)butylamino)pyrimidin-4-yl)-1H-benzo[d]imidazol-2-ylamino)-4-methylphenyl)-3-(trifluoromethyl)benzamide] | 41 nM | – | 885 nM | 217 nM
Cc1ccc(NC(=O)c2cccc(Cl)c2)cc1Nc1nc2ccccc2n1-c1cc(N)ncn1 [N-(3-(1-(6-aminopyrimidin-4-yl)-1H-benzo[d]imidazol-2-ylamino)-4-methylphenyl)-3-chlorobenzamide] | 84 nM | 650 nM | 576 nM | –
Cc1ccc(NC(=O)c2ccncc2Cl)cc1Nc1nc2ccccc2n1-c1cc(N)ncn1 [N-(3-(1-(6-aminopyrimidin-4-yl)-1H-benzo[d]imidazol-2-ylamino)-4-methylphenyl)-3-chloroisonicotinamide] | 890 nM | > 10000 nM | – | 595 nM
Cc1ccc(NC(=O)c2cc(C(C)(C)C)nn2C)cc1Nc1nc2ccccc2n1-c1cc(N)ncn1 [N-(3-(1-(6-aminopyrimidin-4-yl)-1H-benzo[d]imidazol-2-ylamino)-4-methylphenyl)-3-tert-butyl-1-methyl-1H-pyrazole-5-carboxamide] | 224 nM | 959 nM | 451 nM | –
Cc1ccc(NC(=O)c2ccncc2C(C)(C)C)cc1Nc1nc2ccccc2n1-c1cc(N)ncn1 [N-(3-(1-(6-aminopyrimidin-4-yl)-1H-benzo[d]imidazol-2-ylamino)-4-methylphenyl)-3-tert-butylisonicotinamide] | – | 56 nM | – | –
Cc1ccc(NC(=O)c2cccc(C(F)(F)F)c2)cc1Nc1nc2ccccc2n1-c1cc(NCCC2CCCN2)ncn1 (stereo unspecified) [N-(4-methyl-3-(1-(6-(2-(pyrrolidin-2-yl)ethylamino)pyrimidin-4-yl)-1H-benzo[d]imidazol-2-ylamino)phenyl)-3-(trifluoromethyl)benzamide] | 238 nM | 903 nM | 941 nM | –
